The numbers were not newly measured in US20190076442A1, “PRESERVATIVE FREE PHARMACEUTICAL COMPOSITION FOR OPHTHALMIC ADMINISTRATION CONTAINING BIMATOPROST AND TIMOLOL” (PHARMATHEN S.A., priority 2016, published 2019), which cites them from elsewhere.

Counter-ions that a name gives are not always drawn.

Take `CC(C)(C)NC[C@H](O)COc1nsnc1N1CCOCC1` [Timolol maleate]: the “Solubility in ethanol (ethyl alcohol)” value was “soluble” and the Solubility in water entry is recorded as “soluble”. For the same molecule, where the note is “chloroform”, the Solubility in chloroform result is listed as “sparingly soluble”. Under “cyclohexane”, the Solubility in cyclohexane result is “insoluble”. The Solubility in ether result (ether) is reported as “insoluble”. Moreover, the Solubility in methanol result (methanol) is “soluble”. Further, under “propylene glycol”, the “Solubility in propylene glycol” value is recorded as “sparingly soluble”.

On to `CCNC(=O)CCC/C=C\C[C@@H]1[C@@H](/C=C/[C@@H](O)CCc2ccccc2)[C@H](O)C[C@@H]1O` [Bimatoprost], for which the “Solubility in ethanol (ethyl alcohol)” value is recorded as “very soluble” and the Solubility in water entry is listed as “slightly soluble”.
